# Source: patent US20150328377A1, “COMPOSITION OF D-ALPHA HYDROXY ACIDS AND ANTIMICROBIALS” (BACTERIN INTERNATIONAL, INC., priority 2012, published 2015)
# Several values for one entry are separate records, joined by “and”; a condition that tells them apart may be missing. Equal entries are not always repeated.
# System: S. aureus
# Assay: microplate biofilm formation assay (crystal violet)
# Type: cell-based
# Set-up: key to Relative Biofilm Score: crystal violet conc. / non-treated control conc. (1 = control)
# Description: The synergy between a D-alpha hydroxy acid and an antimicrobial agent was determined through a standard microplate biofilm formation assay (Antimicrob Agents Chemother. 2009, 53, 4159-4166—which is incorporated in its entirety by reference). […] Before incubation each well received about 0, about 2, about 20, or about 200 μg/mL L- or D-lactic acids and about 0.0 or about 0.5 μg/mL chlorhexidine (CHX). The plates were incubated for approximately 20 hours at about 37° C. and then the supernatant of the wells was removed. Each well was gently washed 3 times with phosphate buffered saline, and the biofilm was fixed by incubating the plates at about 60° C. for about 1 hour. The biofilm was then stained by incubating at about 37° C. in about 100 μL about 0.5% crystal violet for about 20 minutes. The plates were then thoroughly rinsed with tap water to remove any excess crystal violet and dried. The residual crystal violet was then extracted with about 200 μL of about 33% acetic acid. About 150 μL of the about 33% acetic acid extractant was then diluted with about 2000 μL acetonitrile and the quantity of crystal violet was determined by measuring the absorbance of the resulting solution at about 590 nanometers. The concentration of crystal violet is directly proportional to the amount of biofilm formation in each well. Each set of concentrations was measured at least four times. The average crystal violet concentration was divided by the average crystal violet concentration for a non-treated control (about 0.0 μg/mL CHX and about 0.0 μg/mL lactic acid) to obtain a relative biofilm formation score. In the same manner as Example 1, the synergy between a D-alpha hydroxy acid and the combination of rifampin and minocycline was determined. […] Before incubation each well received about 0 μg/mL or about 200 μg/mL of L- or D-lactic acid and about 0 ng/mL or about 5 ng/mL each of rifampin and minocycline. The plates were incubated for about 20 hours at about 37° C. and then the supernatant of the wells was removed. The quantity of biofilm formation in each well was determined using the protocol detailed in Example 1.
# [1] = 2 μg/mL lactic acid combined with 0.5 μg/mL CHX
# [2] = 2 μg/mL lactic acid, 0.0 μg/mL CHX
# [3] = 20 μg/mL lactic acid combined with 0.5 μg/mL CHX
# [4] = 20 μg/mL lactic acid, 0.0 μg/mL CHX
# [5] = 200 μg/mL lactic acid combined with 5.0 ng/mL Rif/Min, Table 2
# [6] = 200 μg/mL lactic acid combined with 0.5 μg/mL CHX
# [7] = 200 μg/mL lactic acid, 0.0 μg/mL CHX
# [8] = 200 μg/mL lactic acid, 0.0 ng/mL Rif/Min, Table 2
SMILES,"Relative Biofilm Score (0.5 μg/mL CHX alone (0 μg/mL lactic acid), relative to non-treated control, values approximate)",Relative Biofilm Score [1],Relative Biofilm Score [2],Relative Biofilm Score [3],Relative Biofilm Score [4],Relative Biofilm Score [5],Relative Biofilm Score [6],Relative Biofilm Score [7],Relative Biofilm Score [8],"effect on biofilm formation (combined with chlorhexidine, not by itself)","effect on biofilm formation (combined with rifampin and minocycline, not by itself)",effect on biofilm formation (alone or in combination with chlorhexidine at any concentration),effect on biofilm formation (by itself or combined with rifampin and minocycline)
"[H]/N=C(\N/C(=N/[H])NCCCCCCNC(=N)NC(=N)Nc1ccc(Cl)cc1)Nc1ccc(Cl)cc1 [CHX, chlorhexidine]",0.26 ± 0.04 and 0.26 ± 0.05,,,,,,,,,,,,
"C[C@@H](O)C(=O)O [D-Lactic Acid, D-lactic acid]",,0.19 ± 0.03,1.07 ± 0.24,0.12 ± 0.03,1.11 ± 0.17,0.27 ± 0.04,0.04 ± 0.01,1.10 ± 0.20,0.92 ± 0.24,statistically significant dose dependent decrease in biofilm formation,statistically significant decrease in biofilm formation,,
"C[C@H](O)C(=O)O [L-Lactic Acid, L-lactic acid]",,0.23 ± 0.05,1.01 ± 0.20,0.33 ± 0.08,1.06 ± 0.18,0.43 ± 0.03,0.27 ± 0.07,1.16 ± 0.18,1.04 ± 0.15,,,did not show any statistically significant effects on biofilm formation,did not show any reduction in biofilm formation
